Data from ChEMBL document CHEMBL1201862, “PubChem BioAssay data set” (2004).
Where “and” joins values, the source holds several entries; their conditions need not be identical. Identical values can stand only once. Calls of active or inactive are those of the source.

Experiments:
[1] = target: Endoplasmic reticulum aminopeptidase 1 (Homo sapiens, UniProt Q9NZ08); test: inhibition of human ERAP1 enzyme activity – biochemical, cherry-pick, set 2, plate reader, dose response (AID 743314)
[2] = target: T1, Beta-2 adrenergic receptor (Homo sapiens, UniProt P07550); test: Dose response for HTS for Beta-2AR agonists via FAP method from Powderset1.; type: functional
T1 sequence (P07550 whole entry): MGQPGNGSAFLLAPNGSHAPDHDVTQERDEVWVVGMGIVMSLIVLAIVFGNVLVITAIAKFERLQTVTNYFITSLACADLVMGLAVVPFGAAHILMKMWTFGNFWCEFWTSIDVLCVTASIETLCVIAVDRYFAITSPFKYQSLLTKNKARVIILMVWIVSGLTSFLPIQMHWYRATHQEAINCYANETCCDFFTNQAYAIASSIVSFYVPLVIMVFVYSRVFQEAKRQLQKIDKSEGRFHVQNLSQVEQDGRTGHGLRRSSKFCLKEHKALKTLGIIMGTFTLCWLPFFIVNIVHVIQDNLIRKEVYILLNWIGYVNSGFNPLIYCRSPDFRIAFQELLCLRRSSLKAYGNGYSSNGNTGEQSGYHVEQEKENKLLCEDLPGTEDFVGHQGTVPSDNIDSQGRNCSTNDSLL

[3] = target: T1, Beta-2 adrenergic receptor; test: ADRB2 activation measured by internalization – cell-based, FAP fluorogen, flow cytometry, cherry pick 1, dose response (AID 588763); type: functional
[4] = target: Genome polyprotein (dengue virus type 2, UniProt P29990); test: flavivirus cap methylation enzyme inhibition – biochemical, confirmation dose response, primary screen (AID 588689); type: functional
Genome polyprotein, sequence (P29990 2492-3391 limits assumed): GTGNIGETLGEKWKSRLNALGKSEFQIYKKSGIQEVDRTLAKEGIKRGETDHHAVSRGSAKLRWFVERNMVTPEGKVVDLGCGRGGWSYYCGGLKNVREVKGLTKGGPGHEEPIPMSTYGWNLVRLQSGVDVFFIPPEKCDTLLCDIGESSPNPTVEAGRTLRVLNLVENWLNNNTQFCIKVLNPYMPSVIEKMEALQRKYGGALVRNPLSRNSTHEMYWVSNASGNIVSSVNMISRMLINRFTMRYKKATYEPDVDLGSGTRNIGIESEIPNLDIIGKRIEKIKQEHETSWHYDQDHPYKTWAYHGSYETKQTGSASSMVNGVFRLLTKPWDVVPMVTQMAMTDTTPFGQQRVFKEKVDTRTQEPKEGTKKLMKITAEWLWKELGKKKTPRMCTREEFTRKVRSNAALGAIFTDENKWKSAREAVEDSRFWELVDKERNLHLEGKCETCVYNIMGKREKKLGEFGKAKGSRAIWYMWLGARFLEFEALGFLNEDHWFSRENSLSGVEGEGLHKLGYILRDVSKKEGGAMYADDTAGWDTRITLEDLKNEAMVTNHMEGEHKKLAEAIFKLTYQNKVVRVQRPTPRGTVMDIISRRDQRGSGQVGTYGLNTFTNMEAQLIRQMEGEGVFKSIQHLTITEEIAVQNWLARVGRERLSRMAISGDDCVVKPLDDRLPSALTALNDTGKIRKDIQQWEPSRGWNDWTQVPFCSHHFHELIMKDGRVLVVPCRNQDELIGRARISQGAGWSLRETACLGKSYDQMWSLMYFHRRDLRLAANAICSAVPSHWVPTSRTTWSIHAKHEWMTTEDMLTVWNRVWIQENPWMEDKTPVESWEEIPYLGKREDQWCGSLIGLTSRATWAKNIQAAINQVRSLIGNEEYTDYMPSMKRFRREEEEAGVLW

[5] = target: T2, Caspase-3 (Homo sapiens, UniProt P42574); test: human caspase-3 protease activity blockade – biochemical, fluorescence, cherry-picked samples, selectivity assay for caspase-6 allosteric inhibitor project, dose response (AID 743291)
T2 sequence (P42574 whole entry): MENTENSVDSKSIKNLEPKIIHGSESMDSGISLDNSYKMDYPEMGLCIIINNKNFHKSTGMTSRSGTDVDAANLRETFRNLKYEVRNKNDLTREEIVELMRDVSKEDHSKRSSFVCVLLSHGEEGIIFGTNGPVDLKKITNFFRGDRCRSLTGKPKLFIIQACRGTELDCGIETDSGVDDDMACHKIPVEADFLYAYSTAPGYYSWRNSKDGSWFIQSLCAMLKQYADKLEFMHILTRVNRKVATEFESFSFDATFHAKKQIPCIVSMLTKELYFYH

[6] = target: Caspase-7 (Homo sapiens, UniProt P55210); test: caspase-7 enzyme inhibition, selectivity check – biochemical, DEVD-R110 fluorescence, cherry-pick, selectivity assay for caspase-6 inhibitor project, dose response (AID 743295); type: functional
Caspase-7, sequence (P55210 24-198 limits assumed): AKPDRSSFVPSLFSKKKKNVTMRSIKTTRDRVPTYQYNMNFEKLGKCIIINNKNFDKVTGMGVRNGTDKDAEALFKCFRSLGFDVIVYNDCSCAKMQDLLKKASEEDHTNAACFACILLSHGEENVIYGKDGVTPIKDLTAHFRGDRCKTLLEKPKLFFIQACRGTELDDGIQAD
Caspase-7, sequence (P55210 207-303 limits assumed): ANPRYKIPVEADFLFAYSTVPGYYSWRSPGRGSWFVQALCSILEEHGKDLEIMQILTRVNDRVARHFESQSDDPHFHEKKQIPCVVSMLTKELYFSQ

[7] = target: T3, Caspase-6 (Homo sapiens, UniProt P55212); test: inhibition of CASP6 peptide cleavage – biochemical, VEID-R110 fluorescence, cherry-pick, dose response (AID 720632)
T3 sequence (P55212 whole entry): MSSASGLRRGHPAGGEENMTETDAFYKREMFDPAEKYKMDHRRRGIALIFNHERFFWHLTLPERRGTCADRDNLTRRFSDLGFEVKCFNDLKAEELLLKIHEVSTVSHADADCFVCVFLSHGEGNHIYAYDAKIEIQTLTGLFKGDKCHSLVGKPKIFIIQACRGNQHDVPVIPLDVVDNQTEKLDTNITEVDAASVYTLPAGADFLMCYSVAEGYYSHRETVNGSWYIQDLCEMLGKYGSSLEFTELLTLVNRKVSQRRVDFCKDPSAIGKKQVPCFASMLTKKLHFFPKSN

[8] = target: Metabotropic glutamate receptor 3 (Rattus norvegicus, UniProt P31422); test: inhibitors of rat mGlu3 Galpha15 signaling – TREx293 cells, calcium flux, mGlu3 NAM project, dose response (AID 651840); type: functional
Metabotropic glutamate receptor 3, sequence (P31422 whole entry): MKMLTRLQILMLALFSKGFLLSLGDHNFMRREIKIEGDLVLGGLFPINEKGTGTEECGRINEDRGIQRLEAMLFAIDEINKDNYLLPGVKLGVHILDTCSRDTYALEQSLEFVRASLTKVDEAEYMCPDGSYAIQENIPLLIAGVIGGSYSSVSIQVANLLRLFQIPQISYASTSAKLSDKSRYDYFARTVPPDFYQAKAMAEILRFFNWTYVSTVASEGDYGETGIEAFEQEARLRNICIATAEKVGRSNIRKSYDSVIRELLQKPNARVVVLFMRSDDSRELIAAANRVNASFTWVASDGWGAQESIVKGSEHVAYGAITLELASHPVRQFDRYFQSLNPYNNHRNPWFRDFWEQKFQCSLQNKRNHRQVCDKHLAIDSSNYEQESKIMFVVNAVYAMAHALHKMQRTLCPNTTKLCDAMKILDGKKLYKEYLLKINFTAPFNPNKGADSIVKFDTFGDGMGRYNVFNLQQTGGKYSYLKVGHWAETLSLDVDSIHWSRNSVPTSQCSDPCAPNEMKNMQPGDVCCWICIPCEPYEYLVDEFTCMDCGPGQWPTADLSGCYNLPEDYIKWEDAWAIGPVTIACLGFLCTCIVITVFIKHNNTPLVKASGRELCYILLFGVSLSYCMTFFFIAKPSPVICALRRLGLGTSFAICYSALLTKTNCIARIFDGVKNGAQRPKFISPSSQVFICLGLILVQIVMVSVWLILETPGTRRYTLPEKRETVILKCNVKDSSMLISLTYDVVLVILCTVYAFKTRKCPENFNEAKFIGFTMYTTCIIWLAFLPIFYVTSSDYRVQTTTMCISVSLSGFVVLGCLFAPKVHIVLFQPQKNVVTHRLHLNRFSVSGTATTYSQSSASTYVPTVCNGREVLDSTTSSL

[9] = OVCAR8 cell viability loss – plate reader, dry powder samples, PAX8 project, dose response (AID 743197); type: functional, cell-based; settings: OVCAR-8
[10] = PAX5 cellular inhibition readout – cell-based, plate reader, dry powder samples, selectivity assay for PAX8 inhibitor project, dose response (AID 743047); type: functional;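 note: HEK293 cells carrying a Pax5 driven CD19 promoter luciferase reporter; potency of inhibitors that lower reporter luminescence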
[11] = inhibitors acting on PAX2 in cells – cell-based, plate reader, dry powder samples, selectivity assay for PAX8 inhibitor project, dose response (AID 743048); type: functional;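 note: HEK293 cells carrying a WT1 promoter luciferase reporter driven by expressed Pax2; potency is for inhibition of Pax2 driven reporter signal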
[12] = cytotoxicity in HEK293 background cells – cell-based, dry powder, set 2, counter-screen for EBV LMP1 inhibitor project, dose response (AID 624374); type: functional
[13] = A2780 cell killing – plate reader, dry powder samples, cytotoxicity control, dose response (AID 743046); type: functional, cell-based
[14] = viability loss in LCL cells – cell-based, plate reader, dry powder, set 2, cytotoxicity control, dose response (AID 624367); type: functional
[15] = PAX8-dependent cell viability loss – plate reader, dry powder, dose response (AID 743049); type: functional, cell-based
[16] = target: Paired box protein Pax-8 (Homo sapiens, UniProt Q06710); test: PAX8 transcriptional activity inhibition in RMG-I – RMG-I cells, luciferase, cherry-pick, dose response (AID 687027); type: functional, cell-based;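 note: luciferase reporter driven by Pax8 target thyroperoxidase promoter measured by SteadyGlo luminescence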
Paired box protein Pax-8, sequence (Q06710 whole entry): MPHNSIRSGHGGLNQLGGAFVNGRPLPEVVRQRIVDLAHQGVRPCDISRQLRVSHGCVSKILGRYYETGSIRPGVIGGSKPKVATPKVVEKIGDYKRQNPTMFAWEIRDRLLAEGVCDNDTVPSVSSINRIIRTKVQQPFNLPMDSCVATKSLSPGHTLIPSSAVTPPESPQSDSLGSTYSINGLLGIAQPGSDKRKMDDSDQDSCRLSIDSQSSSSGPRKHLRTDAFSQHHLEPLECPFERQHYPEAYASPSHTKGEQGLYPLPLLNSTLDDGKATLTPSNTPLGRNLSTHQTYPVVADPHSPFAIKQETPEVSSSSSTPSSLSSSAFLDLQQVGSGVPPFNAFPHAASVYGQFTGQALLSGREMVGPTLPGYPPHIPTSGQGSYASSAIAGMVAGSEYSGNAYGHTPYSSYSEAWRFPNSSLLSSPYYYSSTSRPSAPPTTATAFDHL

[17] = COV434 cell viability loss – plate reader, dry powder, SA7, cytotoxicity control for PAX8 inhibitor project, dose response (AID 743145); type: functional, cell-based
[18] = Late stage assay provider results from the probe development effort to identify selective inhibitors of heat shock protein 90 (HSP90): Absorbance-based cell proliferation assay in MCF7 cells.; type: functional
[19] = Late stage assay provider results from the probe development effort to identify selective inhibitors of heat shock protein 90 (HSP90): Absorbance-based cell proliferation assay in SKBR3 cells.; type: functional; settings: SK-BR-3
[20] = T. cruzi growth inhibition in host cells, dose response, cell-based, plate reader, dry powder, set 2 (AID 652275); type: functional
[21] = blockade of melanocortin 4 receptor signaling – cell-based, plate reader, cherry pick, counter-screen for LGR2 antagonist project, dose response (AID 743444); type: functional;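 note: transfected HEK 293 cells stimulated with alpha-MSH peptide; potency of inhibitors of the alpha-MSH evoked signal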
[22] = non-specific 3'UTR reporter inhibition in Clone20-Shn3RL – cell-based, Renilla luciferase, cherry-picked, counter-screen for Shn3 inhibitor project, dose response (AID 624133); type: functional
[23] = blockers of bursicon-stimulated LGR2 cAMP reporter – cell-based, HEK293, CRE-luciferase reporter, cherry pick, set 2, dose response (AID 743343); type: functional;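 note: transfected cells were stimulated with diluted bursicon conditioned medium after compound addition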
[24] = tested on: HEK293; test: EBV LMP1 TES2 canonical NF-kB signalling blockers – cell-based, HEK293, luciferase, cherry-pick, dose response (AID 588343); type: functional; settings: Homo sapiens
[25] = Shn3 3'UTR reporter signal decrease – cell-based, Clone20 osteoblasts, firefly luciferase, cherry-pick, set 2, Schnurri-3 inhibitor project, dose response (AID 720490); type: functional;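 note: actives lower the luminescence signal as inhibitors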
[26] = COV362 cell viability loss – plate reader, dry powder, SA12, cytotoxicity control for PAX8 inhibitor project, dose response (AID 743144); type: functional, cell-based
[27] = reduction of Shn3 3'UTR-driven luciferase in osteoblasts – cell-based, Clone20 osteoblasts, firefly luciferase, cherry-picked, dose response (AID 624132); type: functional;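 note: firefly luciferase luminescence from reporter carrying the Shn3 3'UTR in osteoblasts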
[28] = toxicity toward immortalized ovarian surface epithelium – cell-based, plate reader, dry powder samples, cytotoxicity control for PAX8 inhibitor project, dose response (AID 743045); type: functional
[29] = A549 cell cytotoxicity, dose response, cytotoxicity control, plate reader, cherry-pick, antagonist series (AID 743412); type: functional, cell-based
[30] = OV-90 cell viability loss – plate reader, dry powder, SA8, PAX8 inhibitor project, dose response (AID 743149); type: functional, cell-based
[31] = viability loss in HEK293T cells – cell-based, cherry-picks, cytotoxicity control for HIV Vif inhibitor project, dose response (AID 652208); type: functional
[32] = target: T4, Estrogen receptor beta (Homo sapiens, UniProt Q92731);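 note: recombinant ER-beta bound to coactivator SRC1 peptide in presence of estradiol agonist; inhibitors block coactivator peptide binding and lower the FRET signal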
T4 sequence (Q92731 whole entry): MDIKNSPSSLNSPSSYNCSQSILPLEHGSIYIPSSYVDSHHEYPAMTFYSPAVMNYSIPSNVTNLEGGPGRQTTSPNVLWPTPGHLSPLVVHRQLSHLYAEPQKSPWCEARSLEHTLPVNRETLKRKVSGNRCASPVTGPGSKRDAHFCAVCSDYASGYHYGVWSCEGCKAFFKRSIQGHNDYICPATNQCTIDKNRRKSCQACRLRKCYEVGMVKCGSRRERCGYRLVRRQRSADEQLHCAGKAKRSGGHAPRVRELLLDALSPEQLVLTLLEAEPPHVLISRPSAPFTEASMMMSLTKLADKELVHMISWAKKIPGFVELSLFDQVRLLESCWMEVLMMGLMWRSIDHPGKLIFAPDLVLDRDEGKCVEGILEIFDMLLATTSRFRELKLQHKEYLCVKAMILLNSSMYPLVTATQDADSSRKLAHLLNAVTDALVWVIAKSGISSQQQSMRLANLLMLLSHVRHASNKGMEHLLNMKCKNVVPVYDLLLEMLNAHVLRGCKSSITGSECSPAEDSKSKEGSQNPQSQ

[33] = target: T4, Estrogen receptor beta; test: blockers of SRC-3 recruitment to ERβ – biochemical, ELISA, streptavidin-HRP readout, orthogonal assay, confirmation (AID 1060)

Endoplasmic reticulum aminopeptidase 1, sequence (Q9NZ08 whole entry): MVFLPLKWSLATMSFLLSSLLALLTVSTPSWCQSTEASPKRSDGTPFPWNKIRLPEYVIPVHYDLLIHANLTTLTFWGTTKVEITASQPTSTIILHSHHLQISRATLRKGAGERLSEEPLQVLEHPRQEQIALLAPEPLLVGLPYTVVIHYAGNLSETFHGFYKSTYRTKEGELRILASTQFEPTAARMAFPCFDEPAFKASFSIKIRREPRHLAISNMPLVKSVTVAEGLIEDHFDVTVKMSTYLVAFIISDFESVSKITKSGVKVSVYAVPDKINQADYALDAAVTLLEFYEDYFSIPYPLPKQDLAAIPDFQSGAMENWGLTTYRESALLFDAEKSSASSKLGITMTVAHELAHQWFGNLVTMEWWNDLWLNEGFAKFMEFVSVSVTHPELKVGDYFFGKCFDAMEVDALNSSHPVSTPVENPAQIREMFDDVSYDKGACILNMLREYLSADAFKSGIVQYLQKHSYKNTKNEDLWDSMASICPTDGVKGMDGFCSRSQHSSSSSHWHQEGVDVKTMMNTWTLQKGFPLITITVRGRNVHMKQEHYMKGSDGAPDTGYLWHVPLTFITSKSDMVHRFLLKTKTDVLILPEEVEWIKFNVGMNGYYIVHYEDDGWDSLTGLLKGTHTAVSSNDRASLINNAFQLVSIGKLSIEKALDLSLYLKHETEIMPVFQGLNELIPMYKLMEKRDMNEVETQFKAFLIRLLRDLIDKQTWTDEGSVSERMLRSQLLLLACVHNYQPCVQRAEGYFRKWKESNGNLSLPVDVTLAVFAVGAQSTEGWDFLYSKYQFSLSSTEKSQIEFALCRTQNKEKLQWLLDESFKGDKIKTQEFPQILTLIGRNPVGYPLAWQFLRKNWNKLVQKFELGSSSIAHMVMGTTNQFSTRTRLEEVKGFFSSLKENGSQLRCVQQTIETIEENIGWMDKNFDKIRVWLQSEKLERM

## CCC(=O)N1[C@@H]2c3ccc(/C=C/c4ccccc4)c(=O)n3C[C@H]1[C@H](CO)[C@H]2C(=O)N(C)C
[1]
  AC50: 9.44 µM (active)

## Cc1ccc(OCC(=O)Nc2ccc(-c3nc4ncccc4o3)cc2)c(C)c1
[2]
  EC50: 0.503 µM (active)
[3]
  EC50: 316 nM (active) and 92.7 nM (active)

## CC(Cc1ccc(O)cc1)NCC(O)c1ccc(O)c(O)c1 (centres undefined)
[4]
  IC50: > 100 µM (active)
[5]
  AC50: 24.5 µM (active)
[3]
  EC50: 553 nM (active)
[6]
  AC50: > 70 µM (inactive)
[7]
  AC50: 3.68 µM (active)

## COc1ccc(C#Cc2ccc(C(=O)N3CCCC(C)(O)C3)cc2)cc1 (centres undefined)
[8]
  IC50: 0.525 µM

## COc1cccc(C#Cc2ccc([C@@H]3[C@H](C#N)N(C(=O)c4ccccn4)[C@H]3CO)cc2)c1
[9]
  AC50: 63.7 µM (active)
[10]
  AC50: > 70 µM (inactive)
[11]
  AC50: > 70 µM (inactive)
[12]
  AbsAC35: 296.86 µM
[13]
  AC50: 12.7 µM (active)
[14]
  AbsAC35: 55.61 µM
[15]
  AC50: 35.1 µM (active)
[16]
  AC50: 11.9 µM (active)
[17]
  AC50: > 70 µM (inactive)

## COC(=O)c1cccc(COc2ccc3cc(Br)c(=O)oc3c2)c1
[18]
  IC50: > 100 µM (inactive)
[19]
  IC50: > 100 µM (inactive)

## CC(C)N1CC2(CN(Cc3ccc(-c4ccccc4)cc3)C2)Oc2c(NC(=O)c3ccncc3)cccc2C1=O
[20]
  AC50: 0.00131 µM (active)

## CCCn1c(C)cc(C(=O)CN2C(=O)c3ccccc3S2(=O)=O)c1C
[21]
  AC50: 0.798 µM (active)
[10]
  AC50: 3.24 µM (active)
[11]
  AC50: 4.42 µM (active)
[22]
  AC50: 26.8 µM (active)
[23]
  AC50: 0.69 µM (active)
[24]
  AC50: 0.211 µM (active)
[25]
  AC50: 9.79 µM (active)
[15]
  AC50: 55.7 µM (active)
[26]
  AC50: 77.7 µM (active)
[27]
  AC50: 2.98 µM (active)
[16]
  AC50: 3.55 µM (active)
[28]
  AC50: 81.2 µM (active)
[17]
  AC50: > 100 µM (inactive)
[29]
  AC50: > 52 µM (inactive)
[30]
  AC50: 82.5 µM (active)

## CCOc1c(C(N)=O)c(-c2ccccc2)c2c(O)nc3ccccc3n12
[31]
  AC50: 49.9 µM (active)
[32]
  IC50: 33.6 µM (not active)
[33]
  IC50: > 50 µM (not active)
